# Reference: article PMC6048956, “A Double-Blind, Placebo-Controlled Trial Demonstrating the Safety, Tolerability, and Pharmacokinetics of Single, Escalating Oral Doses of RTI-336” (Frontiers in Pharmacology, 2018)
# Entries after “also recorded” stand apart in the source; their conditions may differ. Like-named read-outs stand apart in the source and are kept apart here.
# What was measured:
# [1] = Plasma pharmacokinetics after single oral doses of RTI-336 in healthy males; format: in vivo, human; settings: for half-life / AUC(0-inf) / Cmax / Tmax: male, human, plasma; for half-life: po
# Protocol: (§1) RTI-336-001 was a single-center, double-blind, placebo-controlled, and randomized clinical trial to evaluate the safety, tolerability, and PK of single, escalating oral doses of RTI-336 (0.3, 1, 3, 6, 12, and 20 mg) in 2 cohorts (lowest 3 doses and highest 3 doses) of healthy male participants. RTI-336 and placebo capsules were identical in appearance, and participants, care providers, and those assessing outcomes were blinded to study drug assignment. Each cohort was to be enrolled in 2 groups of 5 participants (randomized 4:1 drug:placebo independently at each dose); the second group was dosed 24 h after the first group, following a safety review of the first group. Each participant would receive up to 3 single, escalating oral doses (in periods 1, 2, and 3) of study drug under fasting conditions, with a minimum of 10 days between doses, and could only participate in one cohort. The number of participants is typical for first-in-man safety and PK studies, and the trial ran to completion.
# Blood samples were obtained at 0.25, 0.5, 1, 1.5, 2, 3, 4, 6, 8, 12, 16, 24, 30, 36, and 48 h post-dose. Cumulative urine specimens were collected over the intervals 0–6, 6–12, 12–24, 24–36, and 36–48 h post-dose.
# [2] = tested on: healthy male participants; assay: Safety and tolerability of single, escalating oral doses (trial RTI-336-001); format: in vivo, human; settings: for serum total bilirubin elevation: day 3 post-dose
# Protocol: as §1
# Orthostatic vital signs (HR, systolic and diastolic blood pressure, and respiratory rate) were obtained pre-dose and at 1, 2, 4, 8, 12, 24, and 48 h post-dose. Body weight was measured at screening, on admissions to the clinic for dosing, and at 7 days following their final dose. Physical examinations of all major organ systems (including neurological examination) were performed at admission and at 48 h post-dose. Adverse events (AEs) were monitored from dosing until 8 days post-dose or resolution, whichever was longer.
# Six-lead ECG telemetry was monitored from 15 min pre-dose until 8 h post-dose. Supine 12-lead ECGs were obtained pre-dose and at 1, 2, 4, 8, 12, 24, and 48 h post-dose.
# Urine for urinalysis (bacteria, bilirubin, blood, glucose, ketones, leukocyte esterase, nitrite, pH, protein, red blood cells, specific gravity, urobilinogen, and WBC) was collected pre-dose and 48 h post-dose. Unfasted blood samples for chemistry (including troponin, albumin, alkaline phosphatase, ALT, AST, BUN, calcium, chloride, CK, creatinine, GGT, globulin, glucose, LDH, phosphorus, potassium, sodium, total bilirubin, total cholesterol, total protein, triglycerides, and uric acid) and hematology (basophils, eosinophils, Hct, Hgb, lymphocytes, RBC indices, monocytes, neutrophils, platelets, RBC, and WBC) were obtained on admission and fasted samples at 48 h post-dose.
# The Mini Mental Status Examination (MMSE) ([Folstein et al., 1975]; [Malloy et al., 1997]) was performed on admission to the clinic and at 4 and 8 h post-dose.
# dopamine reuptake = dopamine reuptake (Homo sapiens, UniProt Q01959); assay: Inhibition of dopamine reuptake; format: biochemical
# Chain of dopamine reuptake (Q01959 whole entry): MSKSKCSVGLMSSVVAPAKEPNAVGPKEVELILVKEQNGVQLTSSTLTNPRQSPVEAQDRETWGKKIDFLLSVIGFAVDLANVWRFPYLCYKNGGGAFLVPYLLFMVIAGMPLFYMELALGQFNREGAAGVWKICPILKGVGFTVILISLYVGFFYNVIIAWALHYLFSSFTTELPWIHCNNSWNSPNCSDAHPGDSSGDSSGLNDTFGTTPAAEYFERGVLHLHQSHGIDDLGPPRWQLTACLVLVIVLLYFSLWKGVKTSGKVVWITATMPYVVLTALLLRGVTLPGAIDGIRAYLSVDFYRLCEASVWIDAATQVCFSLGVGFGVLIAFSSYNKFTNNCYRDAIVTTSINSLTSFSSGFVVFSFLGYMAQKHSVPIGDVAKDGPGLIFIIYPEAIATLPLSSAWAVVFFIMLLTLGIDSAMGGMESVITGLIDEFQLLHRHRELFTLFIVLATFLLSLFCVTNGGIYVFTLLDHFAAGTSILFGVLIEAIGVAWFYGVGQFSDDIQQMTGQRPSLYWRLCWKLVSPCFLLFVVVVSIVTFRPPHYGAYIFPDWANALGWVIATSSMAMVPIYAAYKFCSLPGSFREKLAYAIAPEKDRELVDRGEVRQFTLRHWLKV
# rat = tested on: rat; set-up: method as in Carroll et al., 2006a,b; Carroll, 2007; Howell et al., 2007; settings: rat model, ref Carroll et al., 2006a,b, 2007, Howell et al.; cited from earlier work
# rhesus monkey = tested on: rhesus monkey; set-up: method as in Carroll et al., 2006a,b; Carroll, 2007; Howell et al., 2007; settings: rhesus monkey model, ref Carroll et al., 2006a,b, 2007, Howell et al.; cited from earlier work
# rats [3] = settings: rats co-administered RTI-336 with cocaine, ref data on file; cited from earlier work
# [4] = co-administration with ethanol, ref data on file, RTI, cited from earlier work
# [5] = co-administration with morphine; ref data on file, RTI; cited from earlier work
# rats [6] = settings: acute and reversible with reduced dosing, preclinical toxicology; cited from earlier work
# monkeys [7] = settings: acute and reversible with reduced dosing, preclinical toxicology; cited from earlier work
# dog = settings: 3 mg/kg, 22 h after the dose, preclinical toxicology; cited from earlier work
# mice [8] = settings: up to 75 mg/kg, preclinical toxicology; cited from earlier work
# [9] = preclinical toxicology; cited from earlier work
# monkeys [10] = settings: 9 mg/kg/day, 14-day; cited from earlier work
# mice [11] = assay: Preclinical toxicology, seizures in mice
# [12] = single oral dose 1 mg, fasted, healthy males
# [13] = single oral dose 3 mg, fasted, healthy males
# [14] = single oral dose 6 mg, fasted, healthy males
# [15] = single oral dose 12 mg, fasted, healthy males
# [16] = single oral dose 20 mg, fasted, healthy males
# [17] = humans, single oral doses up to 20 mg
compound,measurement,setting,value
Cc1ccc(-c2cc([C@@H]3C4CCC(C[C@@H]3c3ccc(Cl)cc3)N4C)on2)cc1 (some centres unmarked) [RTI-336],dose proportionality of plasma drug exposure (AUC0-inf) and Cmax,[1]; 1-20 mg single oral dose range,increased in proportion to dose; also recorded: increased dose proportionally
same,time of peak plasma RTI-336 concentration,"[1]; across 1-20 mg single oral dose levels, fasted",around 4 h
same,half-life,"[1]; 1 mg, single oral dose 1 mg, fasted, healthy males, read-out: t1/2 (converted)",5.44 h
same,half-life,"[1]; 3 mg, single oral dose 3 mg, fasted, healthy males, read-out: t1/2 (converted)",7.07 h
same,half-life,"[1]; 6 mg, single oral dose 6 mg, fasted, healthy males, read-out: t1/2 (converted)",17.9 h
same,half-life,"[1]; 12 mg, single oral dose 12 mg, fasted, healthy males, read-out: t1/2 (converted)",15.3 h
same,half-life,"[1]; 20 mg, across 6, 12 and 20 mg single oral doses, read-out: plasma half-life (converted)",~17 h
same,half-life,"[1]; 20 mg, single oral dose 20 mg, fasted, healthy males, read-out: t1/2 (converted)",18 h
same,AUC(0-inf),[1]; [12],3.8 ng·h/mL
same,Cmax,[1]; [12],0.375 ng/mL
same,Tmax,[1]; [12],4.5 h
same,AUC(0-inf),[1]; [13],12.3 ng·h/mL
same,Cmax,[1]; [13],1.04 ng/mL
same,Tmax,[1]; [13],3.71 h
same,AUC(0-inf),[1]; [14],40.4 ng·h/mL
same,Cmax,[1]; [14],3.26 ng/mL
same,Tmax,[1]; [14],4.38 h
same,AUC(0-inf),[1]; [15],63.1 ng·h/mL
same,Cmax,[1]; [15],5.23 ng/mL
same,Tmax,[1]; [15],3.67 h
same,AUC(0-inf),[1]; [16],115 ng·h/mL
same,Cmax,[1]; [16],10.3 ng/mL
same,Tmax,[1]; [16],3.43 h
same,serum total bilirubin elevation,"[2]; 2 participants, transient and mild, resolved by day 8",< 1.5 × ULN
same,effects on the MMSE,[2]; 4 and 8 h post-dose,No effects were observed
same,participants with AEs,[2]; cumulative dose 6 mg or greater,4 of 11
same,participants with AEs,[2]; cumulative doses less than 6 mg,3 of 10
same,ECG abnormalities,[2]; [17],no ECG abnormalities
same,"behavioral stimulation (hyperactivity, stereotypic behavior)",[2]; [17],no such behavioral stimulation
same,Adverse events,"[2]; participant S031, cohort 1, period 2, 1 mg",Body temperature decreased
same,Adverse events,"[2]; participant S031, cohort 1, period 3, 3 mg, cumulative 4 mg","Body temperature decreased, chalazion"
same,Adverse events,"[2]; participant S038, cohort 1, following 3 mg, cumulative 3.3 mg, possibly related to study drug",Somnolence^b
same,serum total bilirubin elevation,"[2]; participant S046, 1 mg",1.08 × ULN
same,total bilirubin,"[2]; participant S046, 1 mg, day 3 post-dose (ULN 20.5; 13.68 pre-dose, 8.55 day 8)",22.23
same,serum total bilirubin elevation,"[2]; participant S046, 3 mg",1.001 × ULN
same,total bilirubin,"[2]; participant S046, 3 mg, day 3 post-dose (6.84 pre-dose, 5.13 day 8)",20.52
same,Adverse events,"[2]; participant S059, cohort 2, 6 mg",Soft tissue inflammation
same,serum total bilirubin elevation,"[2]; participant S069, 6 mg",1.25 × ULN
same,total bilirubin,"[2]; participant S069, 6 mg, day 3 post-dose (10.26 pre-dose, 10.26 day 8)",25.65
same,Adverse events,"[2]; participant S069, cohort 2, 6 mg, related to their activities, not to study drug",Blood creatine phosphokinase increased
same,Adverse events,"[2]; participant S078, cohort 2, 6, 12, 20 mg, cumulative 38 mg","Nasal congestion, pharyngolaryngeal pain"
same,"effects on other chemistry or hematology, urinalysis, vital sign, or ECG results",[2]; single oral doses 0.3-20 mg,No systematic RTI-336 effects were observed
same,tolerability,"[2]; single oral doses 0.3-20 mg, healthy males",well-tolerated up to the maximum evaluated dose of 20 mg; also recorded: well-tolerated at single doses of up to 20 mg; also recorded: free of significant side effects or toxicity
same,maximum tolerated dose,[2]; single oral doses up to 20 mg,not identified
same,IC50,dopamine reuptake,23 nM
same,cocaine self-administration,rat,suppresses cocaine self-administration
same,cocaine self-administration,rhesus monkey,suppresses cocaine self-administration
same,effect on acute toxicity of cocaine,rats [3],no potentiation of the acute toxicity of cocaine
same,effect on ethanol-related mortality,[4],did not increase ethanol-related mortality
same,effect on ethanol-induced incoordination,[4]; rota-rod performance,reduced ethanol-induced incoordination
same,effect on morphine-related analgesia,[5],did not affect morphine-related analgesia
same,effect on weight loss,[5],did increase weight loss
same,central nervous system adverse effects,rats [6],central nervous system stimulation with hyperactivity and stereotypic behavior
same,central nervous system adverse effects,monkeys [7],central nervous system stimulation with hyperactivity and stereotypic behavior
same,seizures,dog,observed only in one dog
same,seizures,mice [8],did not occur
same,cardiovascular effects,[9],low potential for prolonging QTc interval
same,hepatotoxicity,monkeys [10],increased ALT activity and/or bilirubin and mild-to-moderate diffuse or centrilobular vacuolar degeneration in hepatocytes
same,highest seizure-free dose (75 mg/kg) relative to oral ED50 for spontaneous locomotor activity,mice [11],7.5 fold
